Like-named read-outs stand apart in the source and are kept apart here.
What was measured:
[1] = test system: heart devoid of autonomous nervous control; assay: Direct effect on heart rate of a heart devoid of autonomous nervous control, reserpinized, adrenalectomized, vagotomized rats (Experiment 2); format: in vivo, Wistar rats; details: for Change of heart rate (%): + increase, - decrease
Description: Experiment 2 […] Both adrenal glands were removed and bilateral vagotomy in the neck was performed. […] (RM 100). In Table 2, the symbol + represents an increase in heart rate, while the symbol - represents a decrease in heart rate. The standard error is shown in parenthesis.

adrenergic β-receptor [2] = target: T1, adrenergic β-receptor (Rattus norvegicus, UniProt P18090); assay: Blockade of isoproterenol-induced tachycardia in reserpinized, vagotomized rats (Experiment 3); format: in vivo; details: for Res: Response (percent increase of heart rate induced by 0.1 μg/kg l-isoproterenol): i.v., cumulative, Control = 100; for ED50: rat, iv, read-out: ED50 (dose producing 50% blockade of the positive chronotropic control response to l-isoproterenol)
T1 construct: studied in reserpinized, vagotomized rats; from tissue; host or cells: heart in the living, anaesthetized rat (in vivo heart rate)
T1 sequence (P18090 whole entry): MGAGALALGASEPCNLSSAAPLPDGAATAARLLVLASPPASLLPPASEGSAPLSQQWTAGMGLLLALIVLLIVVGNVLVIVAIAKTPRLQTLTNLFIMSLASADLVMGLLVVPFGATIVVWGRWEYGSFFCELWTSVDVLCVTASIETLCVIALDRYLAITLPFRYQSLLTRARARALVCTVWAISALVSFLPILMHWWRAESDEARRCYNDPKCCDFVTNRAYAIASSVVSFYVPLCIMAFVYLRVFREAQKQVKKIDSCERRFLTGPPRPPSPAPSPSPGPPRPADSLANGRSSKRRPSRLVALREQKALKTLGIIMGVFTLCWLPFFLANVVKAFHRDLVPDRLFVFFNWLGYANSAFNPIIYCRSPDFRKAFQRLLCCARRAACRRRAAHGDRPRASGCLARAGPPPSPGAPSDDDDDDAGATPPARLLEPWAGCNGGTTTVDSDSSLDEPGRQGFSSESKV
Description: The effects of certain compounds on isoproterenol-induced tachycardia as well as on resting heart rate were studied in reserpinized, vagotomized rats. The rat was anaesthetized with pentobarbital 18 hours after treatment with reserpine (8 mg./kg., i.p.) and vagotomized bilaterally in the neck. Heart rate was recorded by a cardiotacho-meter (RT-2, Nihonkoden). […] Ten minutes after each dose of the compound an intravenous injection of l-isoproterenol (0.1 μg./kg.) was administered and the increase in heart rate was recorded. The dose producing 50% blockade of the positive chronotropic control response to l-isoproterenol (ED-50) was estimated in each experiment from curves obtained by plotting inhibition percentage against log cumulative dose.

adrenergic β-receptor [3] = target: T2, adrenergic β-receptor (Cavia porcellus, UniProt H0W3H1); assay: Antagonism of l-isoproterenol-induced increase of atrial contraction, isolated guinea pig atria (Experiment 1); set-up: species or system male Hartley guinea pig; details: l-isoproterenol 5 × 10^-8 g./ml., 10 minutes previously
T2 construct: The atria obtained from a male Hartley guinea pig; from tissue; host or cells: isolated atria of male Hartley guinea pig
T2 sequence (H0W3H1 1-470): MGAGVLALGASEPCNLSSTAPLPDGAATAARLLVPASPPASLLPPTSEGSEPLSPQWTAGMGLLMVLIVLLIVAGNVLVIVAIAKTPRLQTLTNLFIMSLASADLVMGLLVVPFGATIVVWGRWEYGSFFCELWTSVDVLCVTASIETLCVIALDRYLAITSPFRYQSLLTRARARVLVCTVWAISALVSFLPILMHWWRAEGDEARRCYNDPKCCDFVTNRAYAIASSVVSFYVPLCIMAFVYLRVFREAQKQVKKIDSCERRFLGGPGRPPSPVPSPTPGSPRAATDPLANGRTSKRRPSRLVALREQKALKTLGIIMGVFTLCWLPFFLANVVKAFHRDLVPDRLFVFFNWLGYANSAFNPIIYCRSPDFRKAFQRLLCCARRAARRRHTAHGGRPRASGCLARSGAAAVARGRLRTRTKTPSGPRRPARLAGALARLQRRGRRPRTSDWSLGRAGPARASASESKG
Description: The atria obtained from a male Hartley guinea pig weighing 300-500 g. were trimmed and placed in chambers containing Tyrode solution oxygenated with 95% oxygen and 5% carbon dioxide and maintained at 30° C.
Contractile force was recorded by an isometric lever connected to a strain gauge tension transducer. Antagonistic activity of the tested drugs on the 1-isoproterenol-induced increase of the atrial contraction was investigated.
The first control response was measured adding 1-isoproterenol to the bath fluid to a final concentration of 5 × 10^-8 g./ml. Then the preparation was washed and the same procedure was repeated after application of the drugs to be tested, i.e. 4-(3-isopropylamino-2-hydroxypropoxy)indene and 4-(3-isopropylamino-2-hydroxypropoxy)indane (final concentrations of 8 × 10^-9 g./ml. and 5 × 10^-8 g./ml.), 10 minutes previously.

resting heart rate = assay: Effect on resting (basic) heart rate in reserpinized, vagotomized rats (Experiment 3); format: in vivo, rat; details: i.v., cumulative
Description: The effects of certain compounds on isoproterenol-induced tachycardia as well as on resting heart rate were studied in reserpinized, vagotomized rats. The rat was anaesthetized with pentobarbital 18 hours after treatment with reserpine (8 mg./kg., i.p.) and vagotomized bilaterally in the neck. Heart rate was recorded by a cardiotacho-meter (RT-2, Nihonkoden). After the control response to l-isoproterenol (0.1 μg./kg., i.v.) was obtained, each compound tested was injected intravenously in such doses that the cumulative dose increased four-fold: 0.01-0.04-0.16-0.64-2.56 mg./kg., at 20 minute intervals. Ten minutes after each dose of the compound an intravenous injection of l-isoproterenol (0.1 μg./kg.) was administered and the increase in heart rate was recorded. The dose producing 50% blockade of the positive chronotropic control response to l-isoproterenol (ED-50) was estimated in each experiment from curves obtained by plotting inhibition percentage against log cumulative dose.
abbreviations; ^a) BHR : Basic heart rate (the heart rate just before
administration of l-isoproterenol, unit = beat per minute)

[4] = Acute intravenous toxicity in white mice; details: mouse, in vivo, injected intravenously
[5] = 0.01 mg./kg. i.v., 1 minute after
[6] = 0.01 mg./kg. i.v., 5 minutes after
[7] = 0.01 mg./kg. i.v., 15 minutes after
[8] = 0.01 mg./kg. i.v., 30 minutes after
[9] = 0.05 mg./kg. i.v., 1 minute after
[10] = 0.05 mg./kg. i.v., 5 minutes after
[11] = 0.05 mg./kg. i.v., 15 minutes after
[12] = 0.05 mg./kg. i.v., 30 minutes after
[13] = 0.10 mg./kg. i.v., 1 minute after
[14] = 0.10 mg./kg. i.v., 5 minutes after
[15] = 0.10 mg./kg. i.v., 15 minutes after
[16] = 0.10 mg./kg. i.v., 30 minutes after
[17] = cumulative dose, l-isoproterenol 0.1 μg./kg. i.v., ± standard error
[18] = final concentration 5 × 10^-8 g./ml.
[19] = final concentration 8 × 10^-9 g./ml.

Compound | Change of heart rate (%) [1, 5] | Change of heart rate (%) [1, 6] | Change of heart rate (%) [1, 7] | Change of heart rate (%) [1, 8] | Change of heart rate (%) [1, 9] | Change of heart rate (%) [1, 10] | Change of heart rate (%) [1, 11] | Change of heart rate (%) [1, 12] | Change of heart rate (%) [1, 13] | Change of heart rate (%) [1, 14] | Change of heart rate (%) [1, 15] | Res: Response (percent increase of heart rate induced by 0.1 μg/kg l-isoproterenol) (adrenergic β-receptor [2]; 0.04 mg/kg) [%] | Res: Response (percent increase of heart rate induced by 0.1 μg/kg l-isoproterenol) (adrenergic β-receptor [2]; 0.16 mg/kg) [%] | Res: Response (percent increase of heart rate induced by 0.1 μg/kg l-isoproterenol) (adrenergic β-receptor [2]; 0.64 mg/kg) [%] | ED50 (adrenergic β-receptor [2]; [17]) [mg/kg] | BHR: Basic heart rate (just before administration of l-isoproterenol) (resting heart rate; 0.04 mg/kg) [beat per minute] | BHR: Basic heart rate (just before administration of l-isoproterenol) (resting heart rate; 0.16 mg/kg) [beat per minute] | BHR: Basic heart rate (just before administration of l-isoproterenol) (resting heart rate; 0.64 mg/kg) [beat per minute] | Res: Response (percent increase of heart rate induced by 0.1 μg/kg l-isoproterenol) (adrenergic β-receptor [2]; 0.01 mg/kg) [%] | BHR: Basic heart rate (just before administration of l-isoproterenol) (resting heart rate; 0.01 mg/kg) [beat per minute] | other results
CC(C)NCC(O)COc1cccc2c1CCC2 (stereo not drawn) [4-(3-isopropylamino-2-hydroxypropoxy)indane] | -0.9% | +0.3% | -1.9% | -1.7% | -2.1% | -2.0% | -2.0% | -4.6% | -5.9% | -8.7% | -8.7% | 54±5 | 33±14 | 12±1 | 0.065 ± 0.013 | 245±15 | 236±14 | 238±17 |  |  | Change of heart rate (%) [1, 16]: -5.4%; effect on the cardiac function (in words) ([1]; Experiment 2): deleterious effects on the cardiac function; Inhibition rate (%) (adrenergic β-receptor [3]; [18]): 88.4%; Inhibition rate (%) (adrenergic β-receptor [3]; [19]): 30.4%
CCC(C)NCC(O)COc1cccc2c1C=CC2 (stereo not drawn) [4-(3-sec-butylamino-2-hydroxypropoxy)indene] |  |  |  |  |  |  |  |  |  |  |  | 65±1 | 40±5 | 17±3 | 0.088 ± 0.011 | 218±13 | 225±14 | 236±16 | 81±4 | 200±13 | Res: Response (percent increase of heart rate induced by 0.1 μg/kg l-isoproterenol) (adrenergic β-receptor [2]; 2.56 mg/kg): 6±1%; BHR: Basic heart rate (just before administration of l-isoproterenol) (resting heart rate; 2.56 mg/kg): 228±23 beat per minute
C=CCc1ccccc1OCC(O)CNC(C)C (stereo not drawn) [alprenolol (Aptin), alprenolol, reference compound] |  |  |  |  |  |  |  |  |  |  |  | 44±3 | 17±3 | 3±1 |  | 247±11 | 261±7 | 262±4 | 65±3 | 233±12 | ED50 (adrenergic β-receptor [2]): 0.03 ± 0.003 mg/kg
CC(C)NCC(O)COc1cccc2c1C=CC2 (racemic) [4-(3-isopropylamino-2-hydroxypropoxy)indene] | +2.4% | +3.8% | +3.2% | +1.7% | +5.6% | +8.4% | +8.7% | +5.2% | +1.5% | +4.1% | +3.5% | 50±2 | 23±2 | 5±1 | 0.039 ± 0.002 | 246±13 | 245±14 | 245±12 | 74±3 | 235±12 | LD50 [4]: 25 mg/kg; Change of heart rate (%) [1, 16]: +4.0%; Inhibition rate (%) (adrenergic β-receptor [3]; [18]): 81.5%; Inhibition rate (%) (adrenergic β-receptor [3]; [19]): 30.7%
